Test results taken from patent US7183267B2, “β-lactamase inhibitors and methods of use thereof” (priority 2003, dated 2007).

Legend:
[1] = target: β-lactamase mutant R244S (Escherichia coli, UniProt P62593, R241S); type: biochemical; conditions: number higher than 1 reflects a loss of potency against mutant
Protocol: (§1) The inhibition of TEM-1 β-lactamase was determined spectrophotometrically. B-lactamase activity was followed by measuring the hydrolysis of nitrocefin, [3-(2,4-dinitrostyryl)-(6R, 7R)-7-(2-thienylacetamido)-ceph-3-em-4-carboxylic acid, E-isomer], (Calbiochem, San Diego, Calif., USA) at 486 nm. Inhibition assays were performed at 25° C. in 50 mM sodium phosphate, 5% DMSO, pH 7.0. […] Inhibitor was added to the enzyme and incubated for ten minutes before the addition of substrate. Inhibition constants (Ki) for the inhibitors are obtained at the desired temperature and solvent conditions by measuring the rate of substrate hydrolysis at increasing amounts of inhibitors.
(§2) Three of the most important mutations are M69I, R244S and E104K.

[2] = target: β-lactamase mutant E104K (Escherichia coli, UniProt P62593, E102K); type: biochemical; conditions: number higher than 1 reflects a loss of potency against mutant
Protocol: as §1, §2

[3] = target: β-lactamase mutant M69I (Escherichia coli, UniProt P62593, M67I); type: biochemical; conditions: number higher than 1 reflects a loss of potency against mutant
Protocol: as §1, §2

[4] = target: T1, TEM-1 β-lactamase (Escherichia coli, UniProt P62593); assay: TEM-1 β-lactamase inhibition assay (nitrocefin hydrolysis, 486 nm); type: biochemical; conditions: Ki
Protocol: as §1
(§3) The competitive inhibition of β-lactamase was determined spectrophotometrically using a Varian (Walnut Creek, Calif.) Cary 100 UV-Visible spectrophotometer. β-lactamase activity was followed by measuring the hydrolysis of nitrocefin, [3-(2,4-dinitrostyryl)-(6R, 7R)-7-(2-thienylacetamido)-ceph-3-em-4-carboxylic acid, E-isomer], (Calbiochem, San Diego, Calif.) at 486 nm. Inhibition assays were performed at 25° C. in 50 mM sodium phosphate, 5% DMSO, pH 7.0. […] Penicillin G (Sigma, St. Louis, Mo.) was also used as a substrate to determine KM and kcat.
(§4) Inhibitor was added to protein and incubated for ten minutes before the addition of substrate. Inhibition constants were determined by measuring the loss of P-lactamase activity with increasing inhibitor concentrations and fitting the data to standard equations for competitive inhibition.
(§5) These methods can also be used to express and assay recombinant TEM-1 variant of β-lactamase.

[5] = target: T2, AmpC β-lactamase (Escherichia coli, UniProt P00811); assay: AmpC β-lactamase competitive inhibition assay (nitrocefin hydrolysis); type: biochemical
T2 construct: made in house; host or cells: E. coli BL21 (DE3)
Protocol: The gene for AmpC β-lactamase (accession number P00811) was obtained from Escherichia coli K12 strain W3110 (American Type Culture Collection, Rockville Md.). E. coli was grown and plasmid (F-lacIq lacPL8 ampC::lambdacI+) was isolated via Qiagen (Valencia, Calif.) mini prep. The gene for AmpC was amplified in two pieces via polymerase chain reaction, ligated and purified by agarose gel electrophoresis. The ligated gene was inserted into a pET200 vector via a TOPO reaction (Invitrogen, Carlsbad, Calif.).
BL21 (DE3) (Invitrogen) cells were transformed by heat-shock with the prepared plasmid. These cells were grown to an OD600 of 0.8 at 37° C. Isopropylthiogalactoside (IPTG) was added to 1 mM, incubation temperature decreased to 25° C. and the cells were grown for an additional 18 hours. After 18 hours, the E. coli was pelleted by centrifugation, and discarded. The growth media was concentrated and dialyzed versus 100 mM Tris, pH 7.0. This solution was run through an equilibrated Q-resin column, and washed with excess 100 mM Tris, pH 7.0.
as §3, §4

[6] = target: T1, TEM-1 β-lactamase; assay: Isothermal titration calorimetry, binding to TEM-1 β-lactamase (Example 17); conditions: ITC
Protocol: (§6) Isothermal titration calorimetry was performed on a high-precision VP-ITC titration calorimeter (Microcal Inc., Northampton, Mass.). β-Lactamase solutions were titrated with inhibitors in 50 mM sodium phosphate, 2% DMSO, pH 7.0, with β-lactamase concentrations ranging from 15 to 25 μM and inhibitor concentrations ranging from 300 to 1000 μM. The heat evolved from each injection was obtained by integrating the calorimetric signal. Heat of binding was obtained as the difference between the heat of reaction and the heat of inhibitor dilution. Data were analyzed using Origin 7.0 (OriginLab Corporation, Northampton, Mass.).
as §5
Also shown are the results obtained for β-lactamase variant TEM-1.

[7] = target: T2, AmpC β-lactamase; conditions: binding to AmpC; ITC
Protocol: as §6
Isothermal titration calorimetry was undertaken to determine the thermodynamic characteristics of binding to AmpC β-lactamase.

[8] = 25° C., 50 mM sodium phosphate, 5% DMSO, pH 7.0, enzyme 5 nM, nitrocefin 167 μM

| Compound | Loss of potency: ratio of the inhibitory constant between mutant and wild type (Potencywt/Potencymutant), R244S [1] | Loss of potency: ratio of the inhibitory constant between mutant and wild type (Potencywt/Potencymutant), E104K [2] | Loss of potency: ratio of the inhibitory constant between mutant and wild type (Potencywt/Potencymutant), M69I [3] | Ki [4, 8] [µM] | Ki ([4]; TEM-1 β-lactamase) [µM] | Ki [5] [µM] | ΔG [6] [kcal/mol] | ΔH [6] [kcal/mol] | −TΔS [6] [kcal/mol] | ΔG [7] [kcal/mol] | ΔH [7] [kcal/mol] | −TΔS [7] [kcal/mol] |
| --- | --- | --- | --- | --- | --- | --- | --- | --- | --- | --- | --- | --- |
| O=C(O)[C@H]1/C(=C/CO)O[C@@H]2CC(=O)N21 [Clavulanic, clavulanic acid, reference compound] | 38 | 0.67 | 163 | – | – | – | – | – | – | – | – | – |
| O=C(Oc1ccc2sc(=O)oc2c1)c1cc(B(O)O)cc([N+](=O)[O-])c1 [Compound (1f), 3-(2-OxO-benzo[1,3]oxathiol-6-oxycarbonyl)-5-nitrophenylboronic acid] | 0.42 | 0.37 | 0.47 | 33 ± 4 | – | – | – | – | – | – | – | – |
| CCOC(=O)c1ccccc1OC(=O)c1cc(B(O)O)cc([N+](=O)[O-])c1 [Compound (1i), 3-(2-Ethoxycarbonyl-phenoxycarbonyl)-5-nitrophenylboronic acid] | 0.34 | 0.36 | 0.50 | 101 ± 4 | – | – | – | – | – | – | – | – |
| O=C(Oc1ccc(OC(=O)c2cc(B(O)O)cc([N+](=O)[O-])c2)c(Cl)c1)c1cc(B(O)O)cc([N+](=O)[O-])c1 [Compound (2b), 3-Borono-5-nitrobenzoic acid 2-chloro-1,4-phenylene ester] | – | – | – | 15.2 ± 1.4 | 15.2 | 2.92 | -7.864 | -0.52 | -7.344 | -7.736 | -0.225 | -7.511 |
| O=C(Oc1c(Cl)c(Cl)c(OC(=O)c2cc(B(O)O)cc([N+](=O)[O-])c2)c(Cl)c1Cl)c1cc(B(O)O)cc([N+](=O)[O-])c1 [Compound (2c)] | – | – | – | – | 6.7 | 3.68 | -5.814 | -1.648 | -4.166 | -7.115 | -0.473 | -6.642 |
| CC(C)(C)c1cc(OC(=O)c2cc(B(O)O)cc([N+](=O)[O-])c2)ccc1OC(=O)c1cc(B(O)O)cc([N+](=O)[O-])c1 [Compound (2d)] | – | – | – | – | 10.9 | 6.27 | -6.513 | -0.859 | -5.654 | -7.098 | 0 | -7.098 |
| O=C(OCc1cccc(B(O)O)c1)c1cc(B(O)O)cc([N+](=O)[O-])c1 [Compound (3d), 3-(3-Boronobenzyloxycarbonyl)-5-nitrophenylboronic acid] | – | – | – | 55.7 ± 4.3 | – | 1.03 | – | – | – | -7.442 | -15.637 | 8.195 |
